From PMC9220351, “Evaluation of a Conformationally Constrained Indole Carboxamide as a Potential Efflux Pump Inhibitor in Pseudomonas aeruginosa” (Antibiotics, 2022)
Converted amounts (≈) assume the structure as drawn. Like-named read-outs stand apart in the source and are kept apart here.

Columns and labels:
[1] = test system: P. aeruginosa mutants EPIR1S, EPIR9S, EPIR20L, EPIR43; experiment: MIC of antimicrobials in TXA09155-resistant mutants; format: cell-based, Pseudomonas aeruginosa
Experimental: All resistant colonies were verified by determining the MIC to TXA09155. […] This two-component system regulates the expression of more than 100 genes in P. aeruginosa, including genes that code for efflux components (mexX), and plays a role in the resistance to cationic antimicrobial peptides and aminoglycoside antibiotics.
(§1) MIC assays were performed as described previously.

P. aeruginosa ATCC 27853 = experiment: MIC / antibiotic potentiation assay, wild-type strain; conditions: for Antibiotic MIC in Presence of TXA09155 at a Concentration of 3.13: TXA09155 3.13 μg/mL; for Antibiotic MIC in Presence of TXA09155 at a Concentration of 25: TXA09155 25 μg/mL; for Emax: ratio between MIC without EPI and MIC in the presence of a maximal potentiating concentration of EPI (TXA09155); for antibiotic potentiated by TXA09155 up to x-fold: TXA09155 25 to 3.13 µg/mL
[2] = test system: P. aeruginosa K2415 (mexXY-oprM overexpressed); experiment: MIC / potentiation assay, strain K2415; format: cell-based, Pseudomonas aeruginosa; conditions: for MIC: Pseudomonas aeruginosa, read-out: MICs K2415 (↑mexXY-oprM)
Excerpt: (§2) P. aeruginosa ATCC 27853 was obtained from the American Type Culture Collection (ATCC; Manassas, VA, USA). P. aeruginosa multidrug-resistant isolates were obtained from the CDC and FDA Antibiotic Resistance Isolate Bank (Atlanta, GA, USA). P. aeruginosa DA7232 (gyrA-T83I, parC-S80L) was a kind gift from Prof. Dan I. Andersson, Uppsala University, Uppsala, Sweden, and has been characterized elsewhere. P. aeruginosa strains K767 (WT), K1455 (mexAB-oprM overexpressed), K2415 (mexXY-oprM overexpressed), and K3698 (oprM∆) were obtained from Prof. Keith Poole, Queen’s University, Kingston, Ontario, Canada and have been characterized elsewhere. Bacterial cells were grown in cation-adjusted Mueller Hinton (CAMH) media, brain heart infusion broth (BHI), or tryptic soy agar (TSA) plates were all obtained from Becton, Dickinson, and Company (BD; Franklin Lakes, NJ, USA). Aztreonam, ceftazidime, moxifloxacin, levofloxacin, minocycline, tigecycline, chloramphenicol, nitrocefin, and imipenem were purchased from TOKU-E (Bellingham, WA, USA). Azithromycin was purchased from Tokyo Chemical Industry (Portland, OR, USA). Cotrimoxazole was purchased from Toronto Research Chemicals (Toronto, ON, Canada). Doxycycline and polymyxin B were purchased from Sigma-Aldrich (St. Louis, MO, USA). Ethidium bromide (EtBr) and glucose were purchased from VWR (Radnor, PA, USA). MC-04,124 and TXA01182 were synthesized at TAXIS Pharmaceuticals. Carbonyl cyanide 3-chlorophenylhydrazone (CCCP) was purchased from Enzo Life Sciences (Farmingdale, NY, USA). DiOC2 (3) and propidium iodide were obtained from Thermo Fisher Scientific (Waltham, MA, USA).
as §1

[3] = test system: P. aeruginosa K3698 (∆oprM); experiment: MIC / potentiation assay, strain K3698; format: cell-based, Pseudomonas aeruginosa; conditions: for MIC: Pseudomonas aeruginosa, read-out: MICs K3698 (∆oprM)
Excerpt: as §2, with “Aztreonam, ceftazidime, moxifloxacin, levofloxacin, minocycline, tigecycline, chloramphenicol, nitrocefin, and imipenem were purchased from TOKU-E (Bellingham, WA, USA).” left out, “Cotrimoxazole was purchased from Toronto Research Chemicals (Toronto, ON, Canada). Doxycycline and polymyxin B were purchased from Sigma-Aldrich (St. Louis, MO, USA).” left out
as §1

[4] = test system: P. aeruginosa K1455 (mexAB-oprM overexpressed); experiment: microbe, parasite or virus in culture; format: cell-based, Pseudomonas aeruginosa; conditions: for MIC: Pseudomonas aeruginosa, read-out: MICs K1455 (↑mexAB-oprM); for MIC Ratios K1455 (↑mexAB-oprM)/K3698 (∆oprM): effect of pump deletion
Excerpt: as §2, §1

P. aeruginosa K767 (WT) = experiment: MIC assay, strain K767; format: cell-based, Pseudomonas aeruginosa; conditions: antibiotic alone; for MIC: Pseudomonas aeruginosa, read-out: MICs K767 (WT)
Excerpt: as §2, §1

[5] = Pseudomonas aeruginosa, strain EPIR1S (phoQ-L175R)
[6] = Pseudomonas aeruginosa, strain EPIR20L (phoQ-H248D)
[7] = Pseudomonas aeruginosa, ATCC27853, read-out: Antibiotic MIC in Presence of TXA09155 at a Concentration of 0
[8] = Pseudomonas aeruginosa, ATCC27853, read-out: MICs, Lack of EPI
[9] = Pseudomonas aeruginosa, strain EPIR9S (phoQ-L175R)

| Compound | MIC [1, 5] | MIC [1, 6] | MIC (P. aeruginosa ATCC 27853; [7]) | Antibiotic MIC in Presence of TXA09155 at a Concentration of 3.13 (P. aeruginosa ATCC 27853) | Antibiotic MIC in Presence of TXA09155 at a Concentration of 25 (P. aeruginosa ATCC 27853) | Emax (P. aeruginosa ATCC 27853) | MIC [2] | Antibiotic MIC in Presence of TXA09155 at a Concentration of 12.5 (P. aeruginosa ATCC 27853) | MIC [4] | MIC (P. aeruginosa K767 (WT)) | also measured |
| --- | --- | --- | --- | --- | --- | --- | --- | --- | --- | --- | --- |
| NCC[C@H](O)C(=O)N[C@@H]1C[C@H](N)[C@@H](O[C@H]2O[C@H](CN)[C@@H](O)[C@H](O)[C@H]2O)[C@H](O)[C@H]1O[C@H]1O[C@H](CO)[C@@H](O)[C@H](N)[C@H]1O [AMK, amikacin] | 8 µg/mL | 8 µg/mL |  |  |  |  |  |  |  |  |  |
| CC[C@H]1OC(=O)[C@H](C)[C@@H](O[C@H]2C[C@@](C)(OC)[C@@H](O)[C@H](C)O2)[C@H](C)[C@@H](O[C@@H]2O[C@H](C)C[C@H](N(C)C)[C@H]2O)[C@](C)(O)C[C@@H](C)CN(C)[C@H](C)[C@@H](O)[C@]1(C)O [AZM, azithromycin] | 64 µg/mL | 64 µg/mL |  |  |  |  |  |  |  |  | MIC (P. aeruginosa ATCC 27853; ATCC 27853, parent strain): 64 µg/mL |
| C[C@H]1[C@H](NC(=O)/C(=N\OC(C)(C)C(=O)O)c2csc(N)n2)C(=O)N1S(=O)(=O)O [Aztreonam] |  |  | 8 µg/mL | 4 µg/mL | 0.25 µg/mL | 32 |  |  |  |  |  |
| CC(C)(O/N=C(\C(=O)N[C@@H]1C(=O)N2C(C(=O)[O-])=C(C[n+]3ccccc3)CS[C@H]12)c1csc(N)n1)C(=O)O [CAZ, ceftazidime] | 2 µg/mL | 2 µg/mL |  |  |  |  |  |  |  |  | MIC (P. aeruginosa ATCC 27853; ATCC 27853, parent strain): 2 µg/mL |
| CO/N=C(\C(=O)N[C@@H]1C(=O)N2C(C(=O)[O-])=C(C[n+]3cccc4c3CCC4)CS[C@H]12)c1csc(N)n1 [Cefpirome] |  |  | 8 µg/mL | 4 µg/mL | 0.5 µg/mL | 16 | 8 µg/mL | 0.5 µg/mL | 8 µg/mL (≈ 15.5 µM) | 2 µg/mL (≈ 3.89 µM) | MIC Ratios K2415 (↑mexXY-oprM) ± TXA09155 [2]: 8; antibiotic potentiated by TXA09155 up to x-fold (P. aeruginosa ATCC 27853): up to 16 fold; FICindex (P. aeruginosa ATCC 27853; sum of the FICindex of antibiotic and TXA09155, <0.5 synergistic): 0.25; MIC [3]: 0.5 µg/mL; MIC Ratios K3698 (∆oprM) ± TXA09155 [3]: 2; MIC Ratios K1455 (↑mexAB-oprM) ± TXA09155 [4]: 8; MIC Ratios K1455 (↑mexAB-oprM)/K3698 (∆oprM) ([4]; antibiotic alone): 4 |
| O=C(N[C@H](CO)[C@H](O)c1ccc([N+](=O)[O-])cc1)C(Cl)Cl [Chloramphenicol] |  |  | > 256 µg/mL | >256 µg/mL | 2 µg/mL | >128 | 128 µg/mL | 4 µg/mL | > 256 µg/mL | 128 µg/mL (≈ 396 µM) | MIC (P. aeruginosa ATCC 27853; [8]): > 256 µg/mL; MIC [3]: 8 µg/mL |
| C[C@H]1c2cccc(O)c2C(=O)C2=C(O)[C@]3(O)C(=O)C(C(N)=O)=C(O)[C@@H](N(C)C)[C@@H]3[C@@H](O)[C@@H]21 [Doxycycline] | 16 µg/mL | 16 µg/mL | 32 µg/mL | 16 µg/mL |  |  | 32 µg/mL |  | ≥ 256 µg/mL | 32 µg/mL (≈ 72 µM) | MIC (P. aeruginosa ATCC 27853; [8]): 32 µg/mL; MIC [1, 9]: 16 µg/mL |
| C[C@@H](O)[C@H]1C(=O)N2C(C(=O)O)=C(SCCN=CN)C[C@H]12 [Imipenem] |  |  | 2 µg/mL | 2 µg/mL | 2 µg/mL | 1 | 1 µg/mL | 2 µg/mL | 1 µg/mL (≈ 3.34 µM) | 2 µg/mL (≈ 6.68 µM) | MIC Ratios K2415 (↑mexXY-oprM) ± TXA09155 [2]: 1; antibiotic potentiated by TXA09155 up to x-fold (P. aeruginosa ATCC 27853): not potentiated; MIC [3]: 2 µg/mL; MIC Ratios K3698 (∆oprM) ± TXA09155 [3]: 1; MIC Ratios K1455 (↑mexAB-oprM) ± TXA09155 [4]: 1; MIC Ratios K1455 (↑mexAB-oprM)/K3698 (∆oprM) ([4]; antibiotic alone): 1 |
| C[C@@H](O)[C@H]1C(=O)N2C(C(=O)O)=C(S[C@@H]3CN[C@H](C(=O)N(C)C)C3)[C@H](C)[C@H]12 [MEM, meropenem] | 2 µg/mL | 2 µg/mL |  |  |  |  |  |  |  |  | MIC [1, 9]: 1 µg/mL |
| CN(C)c1ccc(O)c2c1C[C@H]1C[C@H]3[C@H](N(C)C)C(O)=C(C(N)=O)C(=O)[C@@]3(O)C(O)=C1C2=O [Minocycline] |  |  | 32 µg/mL | 16 µg/mL | 0.125 µg/mL | 256 | 32 µg/mL | 0.25 µg/mL | > 256 µg/mL | 64 µg/mL (≈ 140 µM) | MIC (P. aeruginosa ATCC 27853; [8]): 32 µg/mL; MIC [3]: 1 µg/mL |
| COc1c(N2C[C@@H]3CCCN[C@@H]3C2)c(F)cc2c(=O)c(C(=O)O)cn(C3CC3)c12 [Moxifloxacin] |  |  | 2 µg/mL | 2 µg/mL | 0.016 µg/mL |  |  | 0.031 µg/mL |  |  | MIC (P. aeruginosa ATCC 27853; [8]): 2 µg/mL |
| CN(C)c1cc(NC(=O)CNC(C)(C)C)c(O)c2c1C[C@H]1C[C@H]3[C@H](N(C)C)C(O)=C(C(N)=O)C(=O)[C@@]3(O)C(O)=C1C2=O [TGC, tigecycline] | 8 µg/mL | 8 µg/mL |  |  |  |  |  |  |  |  | MIC (P. aeruginosa ATCC 27853; ATCC 27853, parent strain): 8 µg/mL |
| Cotrimoxazole |  |  |  | 256 µg/mL | 2 µg/mL | 128 |  | 4 µg/mL |  |  | MICs K2415 (↑mexXY-oprM) ([2]; antibiotic alone): 64 µg/mL; Antibiotic MIC in Presence of TXA09155 at a Concentration of 0 (P. aeruginosa ATCC 27853; TXA09155 0 μg/mL): 256 µg/mL; MICs K3698 (∆oprM) ([3]; antibiotic alone): 4 µg/mL; MICs K1455 (↑mexAB-oprM) ([4]; antibiotic alone): > 256 µg/mL; MICs K767 (WT) (P. aeruginosa K767 (WT)): 64 µg/mL |
| polymyxin B [PMB] |  |  |  |  |  |  |  |  |  |  | MIC (P. aeruginosa ATCC 27853; ATCC 27853, parent strain): 2 µg/mL; MIC ([1]; strain EPIR1S (phoQ-L175R)): 4 µg/mL; MIC ([1]; strain EPIR9S (phoQ-L175R)): 2 µg/mL; MIC ([1]; strain EPIR20L (phoQ-H248D)): 4 µg/mL; MIC ([1]; strain EPIR43 (ompH-Q127X)): 4 µg/mL |
